Results published in patent publication US20230114728A1 (Venatorx Pharmaceuticals, Inc., priority 2019, published 2023).
≈ marks a conversion by molar mass, not a printed value.

Tests used:
E. coli K12 PBP3 = target: T1, E. coli K12 PBP3 (Escherichia coli, UniProt P0AD68); test: biochemical; format: binding
T1 construct: made in house
In short: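 A. baumannii PBP2 (2.5 μM) and PBP3 (0.2 μM) were run in 25 mM Tris pH 8.0 buffer with Tween 20; E. coli PBP3 (1.5 μM) and N. gonorrhoeae PBP2 ([…]) in 50 mM Hepes pH 8.0 buffer.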

P. aeruginosa PBP3 = target: T2, P. aeruginosa PBP3 (Pseudomonas aeruginosa, UniProt G3XD46); test: Bocillin-FL fluorescence polarization competition binding assay, P. aeruginosa PBP3; conditions: fluorescence polarization competition binding assay using Bocillin-FL
T2 construct: made in house
T2 sequence (G3XD46 whole entry): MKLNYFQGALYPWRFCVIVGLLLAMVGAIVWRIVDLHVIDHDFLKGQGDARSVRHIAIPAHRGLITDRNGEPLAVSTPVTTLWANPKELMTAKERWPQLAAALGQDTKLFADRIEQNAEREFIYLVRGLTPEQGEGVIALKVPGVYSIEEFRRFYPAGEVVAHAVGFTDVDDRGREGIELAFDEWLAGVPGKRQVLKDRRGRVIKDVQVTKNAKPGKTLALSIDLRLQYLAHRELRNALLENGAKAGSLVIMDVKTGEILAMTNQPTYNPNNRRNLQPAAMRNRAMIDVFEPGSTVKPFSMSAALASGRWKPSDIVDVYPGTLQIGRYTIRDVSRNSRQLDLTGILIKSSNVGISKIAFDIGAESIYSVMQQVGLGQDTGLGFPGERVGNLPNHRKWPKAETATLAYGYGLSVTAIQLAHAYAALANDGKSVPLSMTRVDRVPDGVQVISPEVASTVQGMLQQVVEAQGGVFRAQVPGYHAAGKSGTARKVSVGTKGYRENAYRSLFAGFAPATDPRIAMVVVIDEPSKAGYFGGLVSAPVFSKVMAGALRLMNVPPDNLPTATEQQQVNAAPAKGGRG
In short: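 Inhibitor competition with Bocillin-FL for P. aeruginosa PBP3 was followed by fluorescence polarization on a Cytation3 (BioTek) reader, using g-factor 0.96, 490 nm excitation and 520 nm emission. The enzyme was at 0.75 μM and the probe at 0.1 μM in Hepes/NaCl/glycerol buffer, 80 μl per well. FP was recorded immediately after probe addition for up to 60 minutes. Potency was expressed as EC50, the concentration that reduces bound probe by 50%.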

A. baumannii ATCC 19606 = test: Broth microdilution MIC in CAMHB; format: cell-based; conditions: Acinetobacter baumannii, ATCC19606; MHB; read-out: Minimum Inhibitory Concentration, A. baumannii ATCC 19606
In short: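 CLSI broth microdilution in CAMHB: 2-fold compound dilutions inoculated at 2-8×10^5 CFU/mL from 3-5 h log-phase cultures. Incubated at 37 °C for 16-20 h (Enterobacteriaceae, Pseudomonas); MIC read visually as lowest concentration without growth. Strains include hyper-permeable and efflux-deficient mutants.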

E. coli 901C = test: Broth microdilution MIC in CAMHB; format: cell-based; conditions: Escherichia coli; E. coli 901C (hyper-permeable); MHB; read-out: Minimum Inhibitory Concentration, E. coli 901C
In short: (§1)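 Hyper-permeable or efflux-deficient strains serve to probe outer-membrane penetration. Growth inhibition is scored visually after 16-20 h at 37° C in CAMHB, starting from 2-8×10^5 CFU/mL.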

E. coli AG100A = test: Broth microdilution MIC in CAMHB; format: cell-based; conditions: Escherichia coli, read-out: Minimum Inhibitory Concentration, E. coli AG100A
In short: as §1

E. coli AG100 = test: Broth microdilution MIC in CAMHB; format: cell-based; conditions: Escherichia coli; E. coli AG100 (wild-type parent); MHB; read-out: Minimum Inhibitory Concentration, E. coli AG100
In short: as §1

E. coli ATCC 25922 = test: Broth microdilution MIC in CAMHB; format: cell-based; conditions: Escherichia coli, ATCC25922; E. coli ATCC 25922; MHB; read-out: Minimum Inhibitory Concentration, E. coli 25922
In short: as §1

E. coli D22 = test: Broth microdilution MIC in CAMHB; format: cell-based; conditions: Escherichia coli; E. coli D22 (hyper-permeable); MHB; read-out: Minimum Inhibitory Concentration, E. coli D22
In short: as §1

[1] = test system: K. pneumoniae 848844 producing SHV-11 and KPC-2; test: Broth microdilution MIC in CAMHB; format: cell-based; conditions: Klebsiella pneumoniae, read-out: Minimum Inhibitory Concentration, K. pneumoniae 848844
In short: as §1

[2] = test system: K. pneumoniae SI-117 producing VIM-1; test: Broth microdilution MIC in CAMHB; format: cell-based; conditions: Klebsiella pneumoniae, read-out: Minimum Inhibitory Concentration, K. pneumoniae SI-117
In short: as §1

[3] = test system: K. pneumoniae UMM producing SHV-5 and KPC-2; test: Broth microdilution MIC in CAMHB; format: cell-based; conditions: Klebsiella pneumoniae, read-out: Minimum Inhibitory Concentration, K. pneumoniae UMM
In short: as §1

[4] = test system: P. aeruginosa (ΔmexAB-oprM); test: Broth microdilution MIC in CAMHB; format: cell-based; conditions: Pseudomonas aeruginosa, read-out: Minimum Inhibitory Concentration, P. aeruginosa ΔmexAB-OprM
In short: as §1

P. aeruginosa ATCC 35151 = test: Broth microdilution MIC in CAMHB; format: cell-based; conditions: Pseudomonas aeruginosa, ATCC35151; MHB; hyper-permeable strain; read-out: Minimum Inhibitory Concentration, P. aeruginosa ATCC 35151
In short: as §1

P. aeruginosa PAO1 = test: Broth microdilution MIC in CAMHB; format: cell-based; conditions: Pseudomonas aeruginosa, MHB, read-out: Minimum Inhibitory Concentration, P. aeruginosa PAO1
Procedure: To determine the ability of test compounds to inhibit the growth of bacterial strains, classic cell based broth microdilution minimum inhibitory concentration (MIC) assays were employed. MIC assays are performed according to CLSI methods except where otherwise noted (CLSI, 2018 and CLSI, 2019). The reference type strain E. coli ATCC 25922; the wild-type parent strain E. coli AG100; the hyper-permeable E. coli 901C and E. coli D22; and the E. coli AG100A strain lacking the acrAB efflux pump encoding genes were used to determine the ability of the PBP inhibitors to penetrate the outer membrane of gram-negative bacteria and inhibit bacterial growth. […] The P. aeruginosa ATCC 27853 and A. baumannii ATCC 19606, along with the hyper-permeable P. aeruginosa ATCC 35151 and an engineered efflux pump-compromised strain of P. aeruginosa (ΔmexAB-oprM) were used to determine the ability of PBP inhibitors to penetrate the outer membrane of P. aeruginosa and A. baumannii and assess antibacterial activity against these important gram-negative organisms.
Briefly, cryo-preserved bacterial cultures of challenge strains are streaked for isolation on appropriate agar medium, in this case cation-adjusted Mueller Hinton agar. Following incubation to allow growth of the colonies, plates are sealed with parafilm and stored refrigerated for up to two weeks. For preparation of assay inoculum and to ensure low variability, at least 5 colonies are picked from the agar plates with an inoculating loop and aseptically transferred to a culture tube containing 3 mL of cation-adjusted Mueller Hinton broth (CAMHB). The broth culture is grown for 3-5 hours at 37° C. with shaking at 200 rpm. Meanwhile, 2-fold serial dilutions of test compounds are conducted in a 96-well plate with a final volume of 75 μL per well at 2-fold the final desired concentration. After the dilution plates are set up the growing cultures are then diluted in a cuvette containing CAMHB and the optical density is measured at 600 nm. The inoculum is diluted such that 75 μL of this culture in CAMHB results in a starting bacterial concentration of 2-8×10^5 CFU/mL when added to the dilution plates. The plates are incubated for 16-20 hours for Enterobacteriaceae and Pseudomonas and 20-24 hours for Acinetobacter at 37° C. The MIC values are read visually as the lowest concentration well with no bacterial growth.

T1 sequence (P0AD68 1-577): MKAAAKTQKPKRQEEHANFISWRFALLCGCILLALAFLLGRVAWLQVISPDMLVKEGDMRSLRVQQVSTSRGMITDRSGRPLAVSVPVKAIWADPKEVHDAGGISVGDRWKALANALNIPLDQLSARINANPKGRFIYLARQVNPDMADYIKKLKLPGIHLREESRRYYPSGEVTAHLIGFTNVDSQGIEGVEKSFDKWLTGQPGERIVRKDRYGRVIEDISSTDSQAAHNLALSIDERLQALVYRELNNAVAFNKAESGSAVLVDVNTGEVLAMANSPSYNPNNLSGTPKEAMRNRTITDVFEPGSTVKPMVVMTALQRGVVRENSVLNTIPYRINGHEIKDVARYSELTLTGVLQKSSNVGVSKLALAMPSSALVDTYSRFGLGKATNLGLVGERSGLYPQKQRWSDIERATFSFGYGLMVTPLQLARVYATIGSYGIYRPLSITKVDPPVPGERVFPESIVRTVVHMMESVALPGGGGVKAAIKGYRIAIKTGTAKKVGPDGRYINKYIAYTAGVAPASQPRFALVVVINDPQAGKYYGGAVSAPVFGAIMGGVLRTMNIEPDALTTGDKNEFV

CCN1CCN(C(=O)NC(C(=O)N[C@H]2Cc3ccc(SCCN4CCCC4)c(C(=O)O)c3OB2O)c2csc(N)n2)C(=O)C1=O (stereo partly drawn) [Example 64, (3R)-3-(2-(2-aminothiazol-4-yl)-2-(4-ethyl-2,3-dioxopiperazine-1-carboxamido)acetamido)-2-hydroxy-7-((2-(pyrrolidin-1-yl)ethyl)thio)-3,4-dihydro-2H-benzo[e][1,2]oxaborinine-8-carboxylic acid]
EC50 (E. coli K12 PBP3): > 500 µM | P. aeruginosa PBP3 Potency (P. aeruginosa PBP3): B (B represents a potency between 30 μM and 500 μM inclusive) | MIC (A. baumannii ATCC 19606): > 128 µg/mL | MIC (E. coli 901C): 32 to 64 µg/mL (≈ 48.5 to 97 µM) | MIC (E. coli AG100A): > 128 µg/mL | MIC (E. coli AG100): > 128 µg/mL | MIC (E. coli ATCC 25922): > 128 µg/mL | MIC (E. coli D22): > 128 µg/mL | MIC [1]: > 128 µg/mL | MIC [2]: > 128 µg/mL | MIC [3]: > 128 µg/mL | MIC [4]: > 128 µg/mL | MIC (P. aeruginosa ATCC 35151): 8 to 16 µg/mL (≈ 12.1 to 24.3 µM) | MIC (P. aeruginosa PAO1): > 128 µg/mL
